Source: US20240360151A1 (SANOFI, priority 2023, published 2024)

Target: T1, NLRP3 inflammasome (Homo sapiens, UniProt Q96P20)
T1 construct: endogenous in cells; host or cells: THP-1 monocytic cells
Assay: IL-1β secretion assay (NLRP3 IC50) in LPS-primed, nigericin-activated THP-1 cells, HTRF
Format: cell-based
Conditions: monocytic THP-1 cells; LPS 10 ng/mL 3 h priming, then compound + nigericin 10 μM 2 h; relative IC50, 10 concentrations, geometric mean
Outline: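 THP-1 cells primed with LPS 10 ng/mL for 3 h at 37° C., then compound (10-point 1:3 dilution, 0.1% DMSO) added with 10 μM nigericin for 2 h. Supernatant IL-1β measured by HTRF; relative IC50 from a 4-parameter logistic fit, reported as geometric mean.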

T1 sequence (Q96P20 whole entry): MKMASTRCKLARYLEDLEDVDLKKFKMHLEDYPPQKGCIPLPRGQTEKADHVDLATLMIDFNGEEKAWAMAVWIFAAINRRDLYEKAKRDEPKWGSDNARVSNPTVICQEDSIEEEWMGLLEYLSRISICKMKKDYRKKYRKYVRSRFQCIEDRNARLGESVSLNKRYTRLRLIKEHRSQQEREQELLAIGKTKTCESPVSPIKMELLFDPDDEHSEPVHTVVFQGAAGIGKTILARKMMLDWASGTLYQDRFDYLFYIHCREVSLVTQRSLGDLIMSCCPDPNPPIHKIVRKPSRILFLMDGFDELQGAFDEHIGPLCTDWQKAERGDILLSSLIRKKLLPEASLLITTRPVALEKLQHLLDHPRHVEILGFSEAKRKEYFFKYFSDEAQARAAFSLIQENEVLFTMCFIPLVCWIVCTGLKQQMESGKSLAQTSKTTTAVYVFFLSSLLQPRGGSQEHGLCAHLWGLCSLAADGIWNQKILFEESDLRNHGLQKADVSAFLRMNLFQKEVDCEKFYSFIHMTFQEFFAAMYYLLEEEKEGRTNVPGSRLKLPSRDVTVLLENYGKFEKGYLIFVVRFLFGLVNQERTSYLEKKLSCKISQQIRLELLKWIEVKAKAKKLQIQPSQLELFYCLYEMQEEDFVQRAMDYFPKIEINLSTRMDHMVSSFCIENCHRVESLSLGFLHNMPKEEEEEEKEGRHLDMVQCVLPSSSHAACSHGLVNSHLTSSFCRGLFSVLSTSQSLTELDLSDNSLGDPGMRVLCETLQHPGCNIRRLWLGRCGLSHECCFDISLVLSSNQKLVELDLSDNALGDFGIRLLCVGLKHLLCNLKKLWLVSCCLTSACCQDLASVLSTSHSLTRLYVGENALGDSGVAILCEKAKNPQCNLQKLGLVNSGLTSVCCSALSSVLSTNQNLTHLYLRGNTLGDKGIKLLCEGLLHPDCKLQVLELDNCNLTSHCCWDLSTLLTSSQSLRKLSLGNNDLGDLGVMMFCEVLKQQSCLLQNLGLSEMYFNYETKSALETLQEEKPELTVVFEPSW

| SMILES | IC50 [µM] |
| --- | --- |
| CNC(=O)[C@H]1CN(c2ccc(-c3c(C)cc(C)cc3O)nn2)CCO1 [Example 182, (2R)-4-[6-(2-hydroxy-4,6-dimethylphenyl)pyridazin-3-yl]-N-methylmorpholine-2-carboxamide] | 1.65 |
| CNCC[C@@H]1CN(c2ccc(-c3c(C)cc(C(F)(F)F)cc3O)nn2)CCO1 (single isomer, unassigned) [Example 331] | 1.08 |
| Cc1ccc(O)c(-c2ccc(N3CCO[C@H](CO)C3)nn2)c1C [Example 191, 2-[6-[(2S)-2-(hydroxymethyl)morpholin-4-yl]pyridazin-3-yl]-3,4-dimethylphenol] | 1.12 |
| Cc1cc(C)c(-c2ccc(N3CCC4(CN(C)CCO4)C3)nn2)c(O)c1 (stereo not drawn) [Example 440, 3,5-dimethyl-2-[6-(9-methyl-6-oxa-2,9-diazaspiro[4.5]decan-2-yl)pyridazin-3-yl]phenol] | 3.28 |
| Cc1cc(C(F)(F)F)cc(O)c1-c1ccc(N2CCC[C@@H]3[C@H]2CCCN3C)nn1 [Example 516, 2-[6-[(4aR,8aR)-5-methyl-2,3,4,4a,6,7,8,8a-octahydro-1,5-naphthyridin-1-yl]pyridazin-3-yl]-3-methyl-5-(trifluoromethyl)phenol] | 1.08 |
| CNC(=O)[C@@H]1CN(c2ccc(-c3c(C)cc(C)cc3O)nn2)CCO1 [Example 166, (2S)-4-[6-(2-hydroxy-4,6-dimethylphenyl)pyridazin-3-yl]-N-methylmorpholine-2-carboxamide] | 3.31 |
| Cc1ccc(-c2nnc(N3CCO[C@H]4CCN(C)C[C@H]43)cc2C(F)F)c(O)c1 [Example 306, 2-[6-[(4aR,8aS)-6-methyl-3,4a,5,7,8,8a-hexahydro-2H-pyrido[4,3-b][1,4]oxazin-4-yl]-4-(difluoromethyl)pyridazin-3-yl]-5-methyl-phenol] | 1.51 |
| Cc1cc(C)c(-c2ccc(N3CC[C@]4(CN(C)CCO4)C3)nn2)c(O)c1 [Example 445, 3,5-dimethyl-2-[6-[(5S)-9-methyl-6-oxa-2,9-diazaspiro[4.5]decan-2-yl]pyridazin-3-yl]phenol] | 1.9 |
| Cc1cc(C)c(-c2ccc(N3CCO[C@H](CS)C3)nn2)c(O)c1 [Example 303, 3,5-dimethyl-2-[6-[(2S)-2-(sulfanylmethyl)morpholin-4-yl]pyridazin-3-yl]phenol] | 3.87 |
| Cc1cc(C)c(-c2ccc(N3CC4(CCN4C)C3)nn2)c(O)c1 [Example 91, 3,5-dimethyl-2-[6-(1-methyl-1,6-diazaspiro[3.3]heptan-6-yl)pyridazin-3-yl]phenol] | 4.93 |
| Cc1cc(C)c(-c2ccc(N3CCOC4CCOCC43)nn2)c(O)c1 (racemic) [Example 421, 3,5-dimethyl-2-[6-[rac-(4aS,8aS)-3,4a,5,7,8,8a-hexahydro-2H-pyrano[4,3-b][1,4]oxazin-4-yl]pyridazin-3-yl]phenol] | 1.23 |
| Cc1cc(N2CCO[C@H](CO)C2)nnc1-c1ccc(F)cc1O [Example 93, 5-fluoro-2-[6-[(2S)-2-(hydroxymethyl)morpholin-4-yl]-4-methyl-pyridazin-3-yl]phenol] | 0.879 |
| Cc1cc(C)c(-c2ccc(N3CCOCC34CCCN(C)C4)nn2)c(O)c1 (stereo not drawn) [Example 449, 3,5-dimethyl-2-[6-(8-methyl-4-oxa-1,8-diazaspiro[5.5]undecan-1-yl)pyridazin-3-yl]phenol] | 4.19 |
| Cc1cc(C)c(O)c(-c2ccc(N3CCO[C@H](CO)C3)nn2)c1 [Example 152, 2-[6-[(2S)-2-(hydroxymethyl)morpholin-4-yl]pyridazin-3-yl]-4,6-dimethylphenol] | 5.98 |
| CN(C)C[C@@H]1CCCN(c2ccc(-c3c(O)cc(Cl)cc3Cl)nn2)C1 [Example 51, 3,5-dichloro-2-[6-[(3S)-3-[(dimethylamino)methyl]-1-piperidyl]pyridazin-3-yl]phenol] | 1.05 |
| CCN1CC[C@H]2CCN(c3ccc(-c4c(C)cccc4O)nn3)[C@H]2C1 (single isomer, unassigned) [Example 498] | 0.951 |
| CCN[C@H]1CCCN(c2ccc(-c3c(C)cc(C)cc3O)nn2)C1 [Example 68, 2-[6-[(3S)-3-(ethylamino)-1-piperidyl]pyridazin-3-yl]-3,5-dimethyl-phenol] | 1.22 |
| Cc1cc(C)c(-c2ccc(N3CCOc4ccncc43)nn2)c(O)c1 [Example 362, 2-[6-(2,3-dihydropyrido[4,3-b][1,4]oxazin-4-yl)pyridazin-3-yl]-3,5-dimethyl-phenol] | 3.54 |
| Cc1cc(C)c(-c2ccc(N3CCO[C@H](CC(=O)N(C)C)C3)nn2)c(O)c1 (single isomer, unassigned) [Example 150] | 1.79 |

Other lines, results leading:

| IC50 [µM] | SMILES |
| --- | --- |
| < 0.0003 | CCc1cc(C)cc(O)c1-c1ccc(N2CC[C@@H]3CCN(C)C[C@@H]32)nn1 (single isomer, unassigned) [Example 477] |
| 0.003 | CCc1cc(C(F)(F)F)cc(O)c1-c1ccc(N2CC[C@@H]3CCN(C)C[C@@H]32)nn1 (single isomer, unassigned) [Example 492] |
| 0.062 | CN1CC[C@H]2CCN(c3cc(C(F)F)c(-c4ccc(Cl)cc4O)nn3)[C@H]2C1 (single isomer, unassigned) [Example 500] |
| 0.1 | Cc1cc(C)c(-c2ccc(N3CCO[C@@H]4C[C@@H](O)C[C@@H]43)nn2)c(O)c1 (single isomer, unassigned) [Example 466] |
| 0.209 | CCc1cc(C)cc(O)c1-c1ccc(N2CC[C@H]3CCN(C)C[C@H]32)nn1 (single isomer, unassigned) [Example 476] |
| 0.025 | Cc1cc(C(F)(F)F)cc(O)c1-c1ccc(N2CC[C@H]3[C@@H]2CCN3C)nn1 (racemic) [Example 484, 3-methyl-2-[6-[rac-(3aS,6aS)-1-methyl-2,3,3a,5,6,6a-hexahydropyrrolo[3,2-b]pyrrol-4-yl]pyridazin-3-yl]-5-(trifluoromethyl)phenol] |
| 0.177 | Cc1cc(C)c(-c2ccc(N3CCC[C@@H]4CCNC(=O)[C@@H]43)nn2)c(O)c1 (racemic) [Example 300, rac-(4aR,8aR)-1-[6-(2-hydroxy-4,6-dimethyl-phenyl)pyridazin-3-yl]-2,3,4,4a,5,6,7,8a-octahydro-1,7-naphthyridin-8-one] |
| 0.18 | CCN1CC2OCCN(c3ccc(-c4c(C)cc(C(F)(F)F)cc4O)nn3)C2C1 (racemic) [Example 376, 3-methyl-2-[6-[rac-(4aR,7aR)-6-ethyl-2,3,4a,5,7,7a-hexahydropyrrolo[3,4-b][1,4]oxazin-4-yl]pyridazin-3-yl]-5-(trifluoromethyl)phenol] |
| 0.022 | CN1CC[C@H]2OCCN(c3ccc(-c4c(O)cccc4C(F)(F)F)nn3)[C@H]2C1 [Example 402, 2-[6-[(4aS,8aR)-6-methyl-3,4a,5,7,8,8a-hexahydro-2H-pyrido[4,3-b][1,4]oxazin-4-yl]pyridazin-3-yl]-3-(trifluoromethyl)phenol] |
| 0.699 | CC(=O)N1CC[C@@H]2CCN(c3ccc(-c4c(C)cc(C)cc4O)nn3)[C@@H]2C1 (single isomer, unassigned) [Example 414] |
| 0.681 | Cc1cc(C(F)(F)F)cc(O)c1-c1ccc(N2CCC[C@@H]3CCN(C)C[C@@H]32)nn1 [Example 523, 2-[6-[(4aR,8aR)-7-methyl-2,3,4,4a,5,6,8,8a-octahydro-1,7-naphthyridin-1-yl]pyridazin-3-yl]-3-methyl-5-(trifluoromethyl)phenol] |
| 0.347 | Cc1cc(Cl)cc(O)c1-c1ccc(N2CC[C@@H]3CCN(C)C[C@@H]32)nn1 (single isomer, unassigned) [Example 502] |
| 0.002 | CCc1cc(C(F)(F)F)cc(O)c1-c1ccc(N2CCO[C@@H]3CCN(C)C[C@@H]32)nn1 [Example 481, 2-[6-[(4aS,8aR)-6-methyl-3,4a,5,7,8,8a-hexahydro-2H-pyrido[4,3-b][1,4]oxazin-4-yl]pyridazin-3-yl]-3-ethyl-5-(trifluoromethyl)phenol] |
| 0.862 | OC[C@@H]1CN(c2ccc(-c3c(O)cccc3F)nn2)CCO1 [Example 44, 3-fluoro-2-[6-[(2S)-2-(hydroxymethyl)morpholin-4-yl]pyridazin-3-yl]phenol] |
| 0.298 | Cc1cc(C)c(-c2ccc(N3CCOC([C@H](C)O)C3)nn2)c(O)c1 (single isomer, unassigned) [Example 98] |
| 0.001 | CCc1cc(Cl)cc(O)c1-c1ccc(N2CC[C@@H]3CCN(C)C[C@@H]32)nn1 (single isomer, unassigned) [Example 494] |
| 0.002 | CCN1CC[C@H]2OCCN(c3cc(C(F)F)c(-c4ccc(Cl)cc4O)nn3)[C@H]2C1 [Example 456, 2-[6-[(4aS,8aR)-6-ethyl-3,4a,5,7,8,8a-hexahydro-2H-pyrido[4,3-b][1,4]oxazin-4-yl]-4-(difluoromethyl)pyridazin-3-yl]-5-chloro-phenol] |
| 0.001 | CN1CC[C@H]2CCN(c3cc(C(F)F)c(-c4ccc(C(F)(F)F)cc4O)nn3)[C@H]2C1 (single isomer, unassigned) [Example 483] |
| 0.0004 | CCN1CC[C@@H]2CCN(c3ccc(-c4c(C)cc(C)cc4O)nn3)[C@@H]2C1 (single isomer, unassigned) [Example 505] |
| 0.171 | CCc1cc(Cl)cc(O)c1-c1ccc(N2CC[C@H]3CCN(C)C[C@H]32)nn1 (single isomer, unassigned) [Example 493] |
| 0.275 | Cc1cc(C(F)(F)F)cc(O)c1-c1ccc(N2CC[C@H](CO)C2=O)nn1 (single isomer, unassigned) [Example 325] |
| 0.038 | Cc1cc(N2CCO[C@H](CO)C2)nnc1-c1ccc(C(F)(F)F)cc1O [Example 97, 2-[6-[(2S)-2-(hydroxymethyl)morpholin-4-yl]-4-methyl-pyridazin-3-yl]-5-(trifluoromethyl)phenol] |
| 0.232 | CCN1CC[C@@H]2CCN(c3cc(C(F)F)c(-c4ccc(C)cc4O)nn3)[C@@H]2C1 (single isomer, unassigned) [Example 489] |
